Several values for one entry are separate records, joined by “and”; a condition that tells them apart may be missing. Equal values may be shown once.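 Method: 48-hour compound exposure of cells in 96-well plates, five concentrations, linear interpolation of endpoints. GI50 marks 50% less growth. TGI marks complete inhibition of growth.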

The experiment relates to MDA-MB-468 breast. Nature of the experiment: NCI anticancer screen, dose series, 48 h.
As for `COc1cc(/C(=C2/O[C@@H]([C@H]3COC(C)(C)O3)[C@H]3OC(C)(C)O[C@@H]23)c2ccc3c(c2)OCO3)cc(OC)c1OC`, the GI50 is 7.93 µM and the TGI is above 25 µM.
For `COc1ccc2c(c1)[nH]c(=O)c1c3cc(OC)c(OC)cc3cn21` the same measures were 0.0208 µM and 0.0492 µM.
For `O=C(c1nn(-c2ccc(Cl)cc2)cc1O)n1nc(C(F)(F)F)cc1-c1ccccc1` the same measures were 4.5 µM and above 100 µM.
For `COc1cc(-c2nc(-c3ccc(-c4nc5ccc(F)cc5[nH]4)cc3)no2)cc(OC)c1OC` the same measures were 3.01 µM and 17.5 µM.
Regarding `CCCCCCCCNC(C)C(O)c1ccc(SC(C)C)cc1` (stereo not drawn), the GI50 is 1.57 µM and the TGI is 3.24 µM.
With `c1ccc2cc(C[n+]3ccn(Cc4ccc5ccccc5n4)c3)ccc2c1`, the GI50 was 0.0807 µM and 0.611 µM; the TGI is 0.496 µM and 4.14 µM.
With `Fc1ccc([C@@H]2CCNC[C@H]2COc2ccc3c(c2)OCO3)cc1`, the GI50 was 5.33 µM and the TGI came out at 21 µM.
For `CCSc1ccc([C@@H]2[C@@H](N)C(=O)N2c2cc(OC)c(OC)c(OC)c2)cc1` the same measures were 0.0775 µM and above 100 µM.
Regarding `COc1ccc(/C=N\NC(=O)c2ccc3nc(-c4ccc(Cl)cc4)[nH]c3c2)cc1`, the GI50 is 1.94 µM and the TGI amounted to 4.55 µM.
In the case of `O=C1NC(=O)[C@@H](c2c[nH]c3ccccc23)[C@@H]1c1c[nH]c2ccccc12`, the GI50 is above 25 µM and the TGI was above 25 µM.
For the compound `Clc1ccc2nc(Cl)c3ccccc3c2c1`, the GI50 was 10.5 µM and the TGI is 38.7 µM.
For `COc1ccc(C(=O)/C=C/c2cc(-c3ccc4c(c3)OCO4)n[nH]2)cc1OC` the same measures were 1.86 µM and 4.52 µM.
The like results for `O=C(CCN1CCCC1)Nc1ccc2c(NCCc3ccccc3)c3ccccc3nc2c1` were, in that order, 0.284 µM and 1.04 µM.
The like results for `CCOC(=O)c1ccccc1SC(C[N+](=O)[O-])c1ccccc1` (stereo not drawn) were, in that order, 1.71 µM and 4.06 µM.
With `C#C[C@]1(O)CC[C@H]2[C@@H]3CC=C4c5sc(NCc6ccccc6)nc5CC[C@]4(C)[C@H]3CC[C@@]21C`, the GI50 is 4.4 µM and the TGI was 18.3 µM.
The like results for `CN(C)c1ccc(Nc2c3ccccc3nc3cc(NC(=O)CCN4CCCC4)ccc23)cc1` were, in that order, 0.29 µM and 1.13 µM.
For `COC1C(CO)OC(n2c3c(Cl)cccc3c3c4c(c5c6cccc(Cl)c6[nH]c5c32)C(=O)NC4=O)C(O)C1O` (stereo not drawn) the same measures were 0.0743 µM and 0.352 µM.
As to `COc1ccc(-c2nc(-c3ccccn3)c(-c3ccccn3)n2CC(C)C)cc1OC1CCCC1`, the GI50 was 38.4 µM and the TGI was 136 µM.
The like results for `COc1cc(C(=O)O/N=C(\N)Cc2cccc3ccccc23)cc(OC)c1OC` were, in that order, 15.7 µM and 33.2 µM.
As for `CCN(CC)CCOc1ccc(C(=C(c2ccccc2)C2CCCC2)c2ccc(OCCN(CC)CC)cc2)cc1`, the GI50 is 2.3 µM and the TGI stood at 5.51 µM.
The like results for `NC(=O)c1sc(-n2cnc3ccc(C(F)(F)F)cc32)cc1OCc1ccccc1Br` were, in that order, 0.349 µM and 0.977 µM.
Regarding `O=C(NO)c1ccc(Cn2c(=O)n(-c3ccccc3)c(=O)c3ccccc32)cc1`, the GI50 is 0.542 µM and the TGI came to 2.23 µM.
For `CCOC(=O)c1ccc(N(C=O)CCC(=O)CCl)cc1` the same measures were 0.382 µM and 2.13 µM.
For `O=C(Nc1ccc(Nc2ccncc2)cc1)c1ccc(Nc2ccnc3ccc([N+](=O)[O-])cc23)cc1[N+](=O)[O-]` the same measures were 1.75 µM and 18.3 µM.
Take `COc1cc(-c2nc3cc(Cl)c(Cl)cc3[nH]2)ccc1OCC(=O)N=Nc1c(O)[nH]c2ccc(Cl)cc12`: the GI50 is 0.256 µM and the TGI turned out to be 0.697 µM.
In the case of `O=c1[nH]c(Sc2sc3ccc(Cl)cc3c2CBr)nc(=S)[nH]1`, the GI50 was above 68.8 µM and the TGI was above 100 µM.
The like results for `CCCCCCCCCCC[C@@H](C[C@H]1OC(=O)[C@H]1CCCCCC)OC(=O)[C@@H](CC(C)C)NC=O` were, in that order, 14.1 µM and 48.3 µM.
The like results for `O=C1CC(c2ccsc2)c2snc(-c3ccc(Cl)cc3)c2N1` (stereo not drawn) were, in that order, 0.291 µM and 1.72 µM.
The like results for `O=C1/C(=C/c2ccc(Cl)cc2)CN(C(=O)CCN2CCC(=NO)CC2)C/C1=C\c1ccc(Cl)cc1` were, in that order, 0.833 µM and 2.51 µM.
Take `CCCCCCCCCCCC1=NC(C)(C)CN1CC(C)O` (stereo not drawn): the GI50 was 2.11 µM and the TGI came out at 10.9 µM.
The like results for `COc1cnc2c(c1)C(=O)c1c-2n(CCCNCCN2CCOCC2)c(=O)c2cc([N+](=O)[O-])ccc12` were, in that order, 0.124 µM and 0.605 µM.
For `Cc1ccc(-c2cc(-c3ccc(C)cc3)nc(N3CCN(CCNc4ccnc5cc(Cl)ccc45)CC3)n2)cc1` the same measures were 1.74 µM and 8.3 µM.
For the compound `CN1CCN(c2ccc3nc(-c4[nH]ncc4Nc4ncnc5c4OCCCN5)[nH]c3c2)CC1`, the GI50 is below 0.01 µM and the TGI was determined as 0.0211 µM.
The like results for `CC(C)=CC(=O)N[C@@H]1CC2CCC3C(CC[C@@]4(C)C3CC[C@@H]4C(C)N(C)C)[C@@]2(C)C[C@@H]1O` (stereo partly drawn) were, in that order, 1.54 µM and 8.98 µM.
For `O=C(Nc1ccc(Oc2ccc(NC(=O)Nc3ccc([N+](=O)[O-])cc3)cc2)cc1)Nc1ccc([N+](=O)[O-])cc1` the same measures were 1.56 µM and 14.1 µM.
For `Oc1ccc(Oc2cnc3cc(Cl)ccc3n2)cc1` the same measures were 26.3 µM and above 100 µM.
With `CC[C@H](C)[C@H]1NC(=O)[C@@H]([C@H](O)C(C)C)NC(=O)[C@@H](C)N(C)C(=O)[C@H](C)N(C)C(=O)[C@H](CC(C)C)NC(=O)[C@H](CC(C)C)N(C)C(=O)[C@H](C)N(C)C1=O`, the GI50 was 0.536 µM and the TGI amounted to 10.5 µM.
For `C[C@@H](Oc1cc(-n2cnc3ccc(OCC4CCN(C)CC4)cc32)sc1C(N)=O)c1ccccc1Cl` the same measures were 0.0093 µM and 0.22 µM.
For `C=C(C)[C@@H]1CC[C@]2(C(=O)O)CC[C@]3(C)[C@H](CC[C@@H]4[C@@]5(C)C/C(=C/c6cccc(I)c6)C(=O)C(C)(C)[C@@H]5CC[C@]43C)[C@@H]12` the same measures were 2.45 µM and 11.1 µM.
For `Cc1cc(NCc2cc(Nc3ccnc4cc(Cl)ccc34)ccc2F)nc(N2CCSCC2)n1`, the GI50 is 1.92 µM and the TGI is 4.77 µM.
The like results for `COc1ccc(-c2nnc(SCC(=O)Nc3ccc(C(=O)/C=C/c4cc(OC)c(OC)c(OC)c4)cc3)n2-c2ccccc2)cc1OC` were, in that order, 4.61 µM and above 10 µM.
The like results for `OCCn1cc(-c2cnc3nnn(Cc4ccc5ncccc5c4)c3n2)cn1` were, in that order, 98.8 µM and above 100 µM.
The like results for `CNC(=O)c1cc(Oc2ccc3nc(N[C@@H]4CCCC[C@H]4O)sc3c2)ccn1` were, in that order, 23.7 µM and above 89.7 µM.
Take `Nc1nccc2c1ccn2-c1cccc(NC(=O)c2ccc(N3CCOCC3)c(C(F)(F)F)c2)c1`: the GI50 is 0.331 µM and the TGI stood at 3.19 µM.
The like results for `CC[C@H](C)[C@H](NC(=O)NC(C)(C)C)C(=O)N(C)[C@H](C[C@@H](OC(C)=O)c1nc(C(=O)N[C@@H](Cc2ccccc2)C[C@H](C)C(=O)OC)cs1)C(C)C` were, in that order, 0.0797 µM and 0.441 µM.
For `CCOC(=O)Cn1c(-c2nonc2NC(=O)c2ccccc2F)nc2ccccc21` the same measures were 21.8 µM and above 100 µM.
As for `COc1ccc(C2=N[C@@H](c3ccc(Cl)cc3)[C@@H](c3ccc(Cl)cc3)N2C(=O)N2CCNC(=O)C2)c(OC(C)C)c1`, the GI50 is 12.2 µM and 11.5 µM and 12.7 µM; the TGI is 25.2 µM and 24.5 µM and 26.6 µM.
Turning to `O=c1c2c(=NCCN3CCCC3)cc3c(=O)n(CCCN4CCOCC4)c(=O)c4ccc(c(O)n1CCCN1CCOCC1)c2c4-3`, the GI50 is 0.109 µM and the TGI came out at 0.335 µM.
For `O=C(O)c1cn(C2CC2)c2cc(N3CCNCC3)c(F)cc2c1=O` the same measures were above 100 µM and above 100 µM.
